Test results taken from patent US12187663B2, “Thyromimetics with a biphenylmethane scaffold and their use” (INTERNATIONAL SOCIETY FOR DRUG DEVELOPMENT S.R.L., priority 2019, dated 2025).

Key:
Solubility in water = type: physicochemical
HepG2 cells = experiment: Cell viability MTT assay; type: cell-based; conditions: 1-10 μM, 24 h
Experimental: HepG2 cells were seeded in a 96-well plate (Corning, USA) at a density of 1.0×10^4 cells/well with DMEM (200 μl/well), and then incubated for 24 h according to routine procedure. After being treated with test compounds (1-10 μM) and incubated for 24 h (8 wells for each sample), 20 μL/well MTT (5 g/L) was added to each well. The medium was then removed after 4 h incubation and 100 μL/well sodium dodecyl sulfate (SDS)-HCl solution was added to dissolve the reduced formazan product after incubation for 16 h at 37° C. Finally, the plate was read at 570 nm, using a micro-plate reader (Bio-Rad 680, USA).

TR-alpha = molecular target: T1, TR-alpha (Homo sapiens, UniProt P10827); experiment: LanthaScreen TR-FRET nuclear receptor coregulator assay, TR-alpha; type: biochemical; conditions: for EC50: Nuclear Receptor TR-alpha, coregulator peptide recruitment; for interaction with TRalpha receptor: conclusion from TR-FRET data
T1 construct: In this assay Nuclear Receptor-LBD is added to ligand test compounds; purchased Invitrogen Corporation, Life Technologies
T1 sequence (P10827 163-410 isoform P10827-2 limits assumed, other chains not shown): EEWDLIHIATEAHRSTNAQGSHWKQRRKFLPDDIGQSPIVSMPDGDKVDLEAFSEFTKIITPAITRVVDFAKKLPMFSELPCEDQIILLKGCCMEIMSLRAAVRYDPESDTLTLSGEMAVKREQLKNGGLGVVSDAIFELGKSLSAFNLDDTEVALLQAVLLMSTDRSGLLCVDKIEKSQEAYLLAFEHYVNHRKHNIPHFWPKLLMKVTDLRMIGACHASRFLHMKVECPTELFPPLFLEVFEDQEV
Experimental: (§1) The compounds of Formula (I,II) were tested in the biological test named LANTHASCREEN TR-FRET NUCLEAR RECEPTOR COREGULATOR ASSAY (Invitrogen Corporation, Life Technologies).
(§2) In this assay Nuclear Receptor-LBD is added to ligand test compounds followed by addition of a mixture of the fluorescein-coregulator peptide and terbium anti-GST antibody.

TR-beta = molecular target: T2, TR-beta (Homo sapiens, UniProt P10828); experiment: LanthaScreen TR-FRET nuclear receptor coregulator assay, TR-beta; type: biochemical; conditions: coregulator peptide recruitment
T2 construct: In this assay Nuclear Receptor-LBD is added to ligand test compounds; purchased Invitrogen Corporation, Life Technologies
T2 sequence (P10828 217-461 limits assumed): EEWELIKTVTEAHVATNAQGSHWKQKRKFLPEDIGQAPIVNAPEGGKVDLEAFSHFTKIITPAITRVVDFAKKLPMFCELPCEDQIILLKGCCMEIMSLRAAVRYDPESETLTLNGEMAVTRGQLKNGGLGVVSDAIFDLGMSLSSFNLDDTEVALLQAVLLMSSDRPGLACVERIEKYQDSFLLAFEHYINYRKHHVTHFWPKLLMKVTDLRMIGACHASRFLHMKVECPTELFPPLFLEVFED
Experimental: as §1, §2

[1] = Serum levels of cholesterol, glucose, transaminases, amylase, lipase, bilirubin and triglycerides; type: in vivo, F-344 rats; conditions: rats, 3 days treatment
Experimental: Five-week-old male F-344 rats purchased from Charles River (Milano, Italy) were maintained on a standard laboratory diet (Ditta Mucedola, Milano, Italy). The animals were given food and water ad libitum with a 12-h light/dark daily cycle and were acclimated for 1 week before the start of the experiment. All procedures were performed in accordance with the Guidelines for the Care and Use of Laboratory Animals and were approved by the Italian Ministry of Health. […] A control group received the vehicle (DMSO 5% in corn oil). Additional two groups received daily injections of either IS25 or TG68 at the dose of 75 μg/100 g b.wt. intraperitoneally for 3 days. For the measurement of hepatocyte proliferation, animals received bromodeoxyuridine (BrdU; 1 g/1 L) in drinking water during the 3-day treatment period (FIGS. 7A and B).
Lack of severe liver toxicity was confirmed by measuring the levels of serum transaminases and bilirubin (FIG. 8) that were within the range of normal values for F-344 rats of the same age (Charles River datasheet). Pancreas damage was also evaluated by measuring the levels of amylase and lipase.

AMPK = experiment: Western blot of phosphorylated AMPK in HepG2 cells; type: cell-based, Human; conditions: twenty-four hours of treatment, dose dependent
Experimental: Human hepatocellular carcinoma cells (HepG2), obtained from American Type Culture Collection (Manassas, Va., USA), were cultured in low-glucose (LG) Dulbecco's modified Eagle's medium (DMEM) ([…], Invitrogen, Carlsbad, Calif., USA) or high-glucose (HG) DMEM ([…]) supplemented with 10% fetal bovine serum (FBS) and […] penicillin/streptomycin in an atmosphere of 5% CO2 at 37° C. These cells were then treated with tested compounds at various concentrations for 24 h. After treatments, cells were lysed in a buffer containing 20 mM Tris-HCl (pH 7.5), 0.9% NaCl, 0.2% Triton X-100, and 1% of the protease inhibitor cocktail (Sigma-Aldrich, Milan, Italy) and then stored at −80° C. for further western blot analysis. All the analyses were conducted on cells between the third and the sixth passage.
Proteins (20-30 μg) were separated on CriterionTGX™ gel (4-20%) and transferred on Immuno-PVDF membrane (Biorad, Milan, Italy) for 1 h. Blots were incubated with the primary antibody at 4° C. overnight. All the polyclonal antibodies for the protein of interest were purchased from Santa Cruz Biotechnology, Inc., Dallas, TX, USA. Then, blots were washed 3 times for 10 minutes with 1×TBS, 0.1% Tween® 20 and incubated for 1 h with secondary antibody (peroxidase-coupled anti rabbit in 1×TBS, 0.1% Tween®20). […] Band densitometric analysis was performed using Image Lab Software (Biorad, Milan, Italy).
The liver is a major organ responsible for most functions of cellular metabolism and a mediator between dietary and endogenous sources of energy for extrahepatic tissues. In this context, AMPK constitutes an intrahepatic energy sensor regulating physiological energy dynamics by limiting anabolism and stimulating catabolism, thus increasing ATP availability. Once activated, AMPK phosphorylates its downstream substrates to reduce ATP-consuming anabolic pathways, including cholesterol, fatty acid, and triacylglycerol synthesis, and increases ATP-generating catabolic pathways, including fatty acid oxidation and lipolysis. […]

[2] = Serum levels of cholesterol, glucose, transaminases, amylase, lipase, bilirubin and triglycerides; type: in vivo, F-344 rats; conditions: rats, intragastric administration, 3 days

## Cc1cc(OCC(=O)O)cc(C)c1Cc1ccc(N)c(C(C)C)c1 [IS25, 2-(4-(4-amino-3-isopropylbenzyl)-3,5-dimethylphenoxy)acetic acid]
Solubility in water
  solubility in water: very soluble in water
HepG2 cells
  cell viability (cell death with respect to control): did not significantly (p<0.05) cause cell death
TR-alpha
  EC50: > 1000 nM
  interaction with TRalpha receptor: do not interact
TR-beta
  EC50: 458 nM
[1]
  serum amylase (pancreas damage): No significant changes
  serum cholesterol: no change
  serum glucose: no change
  serum lipase (pancreas damage): No significant changes
AMPK
  expression of p-AMPK: significantly (p<0.05) increased
[2]
  serum TGs level: significantly reduced

## CC(=O)Nc1ccc(Cc2c(C)cc(OCC(=O)O)cc2C)cc1C(C)C [TG68, 2-(4-(4-acetamido-3-isopropylbenzyl)-3,5-dimethylphenoxy)acetic acid]
Solubility in water
  solubility in water: very soluble in water
HepG2 cells
  cell viability (cell death with respect to control): did not significantly (p<0.05) cause cell death
TR-alpha
  EC50: > 1000 nM
  interaction with TRalpha receptor: do not interact
TR-beta
  EC50: > 1000 nM
[1]
  serum amylase (pancreas damage): No significant changes
  serum cholesterol: no change
  serum glucose: no change
  serum lipase (pancreas damage): No significant changes
AMPK
  expression of p-AMPK: significantly (p<0.05) increased
[2]
  serum TGs level: significantly reduced
